Measurements reported in patent US20260193268A1, “TRICYCLIC PI3Ka INHIBITOR, PREPARATION METHOD THEREFOR, AND PHARMACEUTICAL USE THEREOF” (WIGEN BIOMEDICINE TECHNOLOGY (SHANGHAI) CO., LTD., priority 2022, published 2026).
Like-named read-outs stand apart in the source and are kept apart here.

Experiments:
[1] = system: HCC1954 cells (with PI3Kα H1047R mutation); experiment: In vitro inhibition of HCC1954 cell proliferation (CellTiter-Lumi); assay type: cell-based
Description: Assay for In Vitro Inhibition of HCC1954 Cell Proliferation by Compounds of the Present Disclosure
The growth of the cells was evaluated, and the IC50 for the inhibition of cell growth by the compounds was calculated.

[2] = system: MCF-7 cells (with PI3Kα E545K mutation); experiment: In vitro inhibition of MCF-7 cell proliferation (CellTiter-Lumi); assay type: cell-based
Description: Biological Example 3. Assay for In Vitro Inhibition of MCF-7 Cell Proliferation by Compounds of the Present Disclosure
MCF-7 cells (with PI3Kα E545K mutation) were seeded into a 384-well plate (Fisher 142762) at 2000 cells per well. The next day, serially diluted compounds were added, and 144 h after the addition, CellTiter-Lumi (Beyotime C0068XL) was added to measure the ATP content in the cells. The growth of the cells was evaluated, and the IC50 for the inhibition of cell growth by the compounds was calculated.

[3] = Homo sapiens, HCC1954, 144 h, HCC1954 cells, 144 h, CellTiter-Lumi, numeric values, read-out: Inhibitory activity against HCC1954 cells (IC50)
[4] = Homo sapiens, MCF7, 144 h, numeric values, read-out: Inhibitory activity against MCF-7 cells (IC50)
[5] = Homo sapiens, HCC1954, 144 h, HCC1954 cells, 144 h, CellTiter-Lumi, class symbols, read-out: Inhibitory activity against HCC1954 cells (IC50), class symbols
[6] = Homo sapiens, MCF7, 144 h, class symbols, read-out: Inhibitory activity against MCF-7 cells (IC50), class symbols

Row | IC50 [1, 3] | IC50 [2, 4] | IC50 [1, 5] | IC50 [2, 6] | SMILES | further results
1 | > 1000 nM | 146 nM |  |  | C=CC(=O)N1CCC(N2CCC(N3CCN(c4ccc5c(c4)-c4nc(N6C(=O)OC[C@H]6C(F)F)cn4CCO5)CC3)CC2)CC1 [Compound 10] | 
2 |  |  | < 50 nM | < 50 nM | COC(C)(C)C=C(C#N)C(=O)Nc1cnc(N2CC(N3CCN(c4ccc5c(c4)-c4nc(N6C(=O)OC[C@H]6C(F)F)cn4CCO5)CC3)C2)nc1 [Compound 267] | 
3 |  |  | 50 to 100 nM | < 50 nM | C=CC(=O)Nc1ccc2c(c1)CCN(CC#Cc1ccc3c(c1)-c1nc(N4C(=O)OC[C@H]4C(F)F)cn1CCO3)C2 [Compound 200] | 
4 |  |  | < 50 nM | < 50 nM | CC(C)(C=C(C#N)C(=O)Nc1ccc(N2CC(N3CCN(c4ccc5c(c4)-c4nc(N6C(=O)OC[C@H]6C(F)F)cn4CCO5)CC3)C2)c(F)c1)N1CCC1 [Compound 229] | 
5 | 30 nM | 3.4 nM |  |  | CC#CC(=O)N1CCc2cc(N3CC(N4CCN(c5ccc6c(c5)-c5nc(N7C(=O)OC[C@H]7C(F)F)cn5CCO6)CC4)C3)ccc21 [Compound 165] | 
6 | 10 nM | 0.8 nM |  |  | CN(C)CC#CC(=O)Nc1ccc(N2CC(N3CCN(c4ccc5c(c4)-c4nc(N6C(=O)OC[C@H]6C(F)F)cn4CCO5)CC3)C2)cc1 [Compound 153] | 
7 |  |  | < 50 nM | < 50 nM | CC(C)C=C(C#N)C(=O)Nc1ccc(N2CC(N3CCN(c4ccc5c(c4)-c4nc(N6C(=O)OC[C@H]6C(F)F)cn4CCO5)CC3)C2)nc1 [Compound 244] | 
8 | 438 nM | 69 nM |  |  | C=CC(=O)Nc1ccc(N2CC[C@H](CN3CCN(c4ccc5c(c4)-c4nc(N6C(=O)OC[C@H]6C(F)F)cn4CCO5)CC3)C2)cc1 [Compound 20] | 
9 | 6.7 nM | 0.6 nM |  |  | CC(C)(C=C(C#N)C(=O)Nc1ccc(N2CC(N3CCN(c4ccc5c(c4)-c4nc(N6C(=O)OC[C@H]6C(F)F)cn4CCO5)CC3)C2)cc1)N1CC2(COC2)C1 [Compound 141] | 
10 | 225 nM | 12 nM |  |  | C=CC(=O)N1CC(N2CCC(N3CCN(c4ccc5c(c4)-c4nc(N6C(=O)OC[C@H]6C(F)F)cn4CCO5)CC3)C2)C1 (stereo partly drawn) [Compound 90] | 
11 |  |  | < 50 nM | < 50 nM | CC(C)(C=C(C#N)C(=O)Nc1ccc(N2CC(N3CCN(c4ccc5c(c4)-c4nc(N6C(=O)OC[C@H]6C(F)F)cn4CCO5)CC3)C2)cc1)OCOP(=O)(OCOC(=O)C(C)(C)C)OCOC(=O)C(C)(C)C [Compound 343] | 
12 |  |  | < 50 nM | < 50 nM | CC(C)OC(=O)OCOP(=O)(OCNC(C)(C)C=C(C#N)C(=O)Nc1ccc(N2CC(N3CCN(c4ccc5c(c4)-c4nc(N6C(=O)OC[C@H]6C(F)F)cn4CCO5)CC3)C2)cc1)OCOC(=O)OC(C)C [Compound 334] | 
13 | 162 nM | 34 nM |  |  | C=CC(=O)Nc1ccc(CN2CC3(C2)CN(c2ccc4c(c2)-c2nc(N5C(=O)OC[C@H]5C(F)F)cn2CCO4)C3)cc1 [Compound 40] | 
14 | 109 nM | 35 nM |  |  | CC(C)(C=C(C#N)C(=O)Nc1ccc(N2CC(N3CCN(c4ccc5c(c4)-c4nc(N6C(=O)OC[C@H]6C(F)F)cn4CCO5)CC3)C2)cc1)N1CCOCC1 [Compound 138] | 
15 |  |  | < 50 nM | < 50 nM | COc1cc2c(cc1N1CCN(C3CN(c4ccc(NC(=O)C(C#N)=CC(C)(C)C)cc4)C3)CC1)-c1nc(N3C(=O)OC[C@H]3C(F)F)cn1CCO2 [Compound 318] | 
16 |  |  | < 50 nM | < 50 nM | CC(C)(C=C(C#N)C(=O)Nc1ccc(N2CC(N3CCN(c4ccc5c(c4)-c4nc(N6C(=O)OC[C@H]6C(F)F)cn4CCO5)CC3)C2)c(F)c1)NC1COC1 [Compound 221] | 
17 |  |  | < 50 nM | < 50 nM | CC(C)(C=C(C#N)C(=O)Nc1ccc(N2CC(N3CCN(c4ccc5c(c4)-c4nc(N6C(=O)OC[C@H]6C(F)F)cn4CCO5)CC3)C2)nc1)NC1COC1 [Compound 239] | 
18 |  |  | 50 to 100 nM | < 50 nM | C=CC(=O)Nc1ccc(C2CN(c3ccc(-c4ccc5c(c4)-c4nc(N6C(=O)OC[C@H]6C(F)F)cn4CCO5)cc3)C2)cc1 [Compound 181] | 
19 |  |  | < 50 nM | < 50 nM | CC(C)(N)C=C(C#N)C(=O)Nc1ccc(N2CC(N3CCN(c4ccc5c(c4)-c4nc(N6C(=O)OC[C@H]6C(F)F)cn4CCO5)CC3)C2)cn1 [Compound 291] | 
20 |  |  | < 50 nM | < 50 nM | COCCN1CCN(C(C)(C)C=C(C#N)C(=O)Nc2ccc(N3CC(N4CCN(c5ccc6c(c5)-c5nc(N7C(=O)OC[C@H]7C(F)F)cn5CCO6)CC4)C3)cc2)CC1 [Compound 305] | 
21 |  |  | < 50 nM | < 50 nM | CC(=O)OCNC(C)(C)C=C(C#N)C(=O)Nc1ccc(N2CC(N3CCN(c4ccc5c(c4)-c4nc(N6C(=O)OC[C@H]6C(F)F)cn4CCO5)CC3)C2)cc1 [Compound 328] | 

Row | IC50 [1, 3] | IC50 [2, 4] | IC50 [1, 5] | IC50 [2, 6] | SMILES | further results
22 | 318 nM | 37 nM |  |  | C=CC(=O)N1CC(N2CC[C@@H](CN3CCN(c4ccc5c(c4)-c4nc(N6C(=O)OC[C@H]6C(F)F)cn4CCO5)CC3)C2)C1 [Compound 87] | 
23 | 544 nM | 219 nM |  |  | C=CC(=O)N1CCc2cc(N3CC(N4CCN(c5ccc6c(c5)-c5nc(N7C(=O)OC[C@H]7C(F)F)cn5CCO6)CC4)C3)cnc21 [Compound 167] | 
24 | 251 nM | 23 nM |  |  | C=CC(=O)N1CC[C@@H](C(=O)N2CC3(CCN(c4ccc5c(c4)-c4nc(N6C(=O)OC[C@H]6C(F)F)cn4CCO5)CC3)C2)C1 [Compound 21] | 
25 |  |  | < 50 nM | < 50 nM | N#CC(=CC1CCCN1)C(=O)Nc1cnc(N2CC(N3CCN(c4ccc5c(c4)-c4nc(N6C(=O)OC[C@H]6C(F)F)cn4CCO5)CC3)C2)nc1 (stereo partly drawn) [Compound 270] | 
26 | > 1000 nM | 1120 nM |  |  | C=CC(=O)N1CCC(CN2CC3(CCN(c4ccc5c(c4)-c4nc(N6C(=O)OC[C@H]6C(F)F)cn4CCO5)CC3)C2)CC1 [Compound 24] | 
27 | 16 nM | 1.5 nM |  |  | C=CC(=O)Nc1cc(N2CC(N3CCN(c4ccc5c(c4)-c4nc(N6C(=O)OC[C@H]6C(F)F)cn4CCO5)CC3)C2)n(C)n1 [Compound 135] | 
28 | 68 nM | 11 nM |  |  | C=CC(=O)Nc1ccc(CN2CC(N3CCN(c4ccc5c(c4)-c4nc(N6C(=O)OC[C@H]6C(F)F)cn4CCO5)CC3)C2)cc1 [Compound 39] | 
29 |  |  | < 50 nM | < 50 nM | N#CC(=Cc1ccccc1)C(=O)Nc1ccc(N2CC(N3CCN(c4ccc5c(c4)-c4nc(N6C(=O)OC[C@H]6C(F)F)cn4CCO5)CC3)C2)cc1 [Compound 394] | 
30 |  |  | 50 to 100 nM | < 50 nM | C=CC(=O)Nc1ccc(C2CN(CC#Cc3ccc4c(c3)-c3nc(N5C(=O)OC[C@H]5C(F)F)cn3CCO4)C2)cc1 [Compound 201] | 
31 |  |  | < 50 nM | < 50 nM | Cc1nc(-c2cn3c(n2)-c2cc(N4CCN(C5CN(c6ccc(NC(=O)C(C#N)=CC(C)(C)C)cn6)C5)CC4)ccc2OCC3)n(C(C)C)n1 [Compound 368] | 
32 |  |  | < 50 nM | < 50 nM | CC(C)(C=C(C#N)C(=O)Nc1ccc(N2CC(N3CCN(c4ccc5c(c4)-c4nc(N6C(=O)OC[C@H]6C(F)F)cn4CCO5)CC3)C2)cc1Cl)NC(=O)OC(C)(C)C [Compound 358] | 
33 | 47 nM | 3.5 nM |  |  | C=CC(=O)Nc1ccc(C2CN(C3CCN(c4ccc5c(c4)-c4nc(N6C(=O)OC[C@H]6C(F)F)cn4CCO5)CC3)C2)cc1 [Compound 160] | 
34 | 232 nM | 23 nM |  |  | C=CC(=O)Nc1ccc(N2CC(N3CCN(c4cc5c(cc4F)OCCn4cc(N6C(=O)OC[C@H]6C(F)F)nc4-5)CC3)C2)cc1 [Compound 102] | 
35 |  |  | 50 to 100 nM | < 50 nM | CC(C)=CC(=O)CCCC(=O)N1CCC(/C=C/c2ccc3c(c2)-c2nc(N4C(=O)OC[C@H]4C(F)F)cn2CCO3)CC1 [Compound 189] | 
36 |  |  |  |  | CC(C)(C=C(C#N)C(=O)Nc1ccc(N2CC(N3CCN(c4ccc5c(c4)-c4nc(N6C(=O)OC[C@H]6C(F)F)cn4CCO5)CC3)C2)cc1)NC(=O)OC(C)(C)C [Compound 324B] | IC50 ([1]; HCC1954 cells, 144 h, CellTiter-Lumi, numeric values, read-out: Inhibitory activity against HCC1954 cells (IC50)): 6.2 nM; IC50 ([2]; 144 h, numeric values, read-out: Inhibitory activity against MCF-7 cells (IC50)): 2.6 nM
37 |  |  | < 50 nM | < 50 nM | CN(C)C/C=C/C(=O)Nc1ccc(N2CC(N3CCN(c4ccc5c(c4)-c4nc(N6C(=O)OC[C@H]6C(F)F)cn4CCO5)CC3)C2)nn1 [Compound 287] | 
38 |  |  | < 50 nM | < 50 nM | CN(C)C/C=C/C(=O)Nc1ccc(N2CC(N3CCN(c4ccc5c(c4)-c4nc(N6C(=O)OC[C@H]6C(F)F)cn4CCO5)CC3)C2)cc1Cl [Compound 365] | 
39 |  |  | < 50 nM | < 50 nM | N#CC(=CC1(N)CCC1)C(=O)Nc1ccc(N2CC(N3CCN(c4ccc5c(c4)-c4nc(N6C(=O)OC[C@H]6C(F)F)cn4CCO5)CC3)C2)cc1 [Compound 391] | 
40 |  |  | 50 to 100 nM | < 50 nM | CC(C)=CC(=O)CCCC(=O)N1CCN(Cc2ccc3c(c2)-c2nc(N4C(=O)OC[C@H]4C(F)F)cn2CCO3)CC1 [Compound 190] | 
41 |  |  | < 50 nM | < 50 nM | CNC(C)(C)C=C(C#N)C(=O)Nc1ccc(N2CC(N3CCN(c4ccc5c(c4)-c4nc(N6C(=O)OC[C@H]6C(F)F)cn4CCO5)CC3)C2)cn1 [Compound 298] | 

Row | SMILES | IC50 [1, 3] | IC50 [2, 4] | IC50 [1, 5] | IC50 [2, 6] | further results
42 | CCOP(=O)(OCC)OCOC(C)(C)C=C(C#N)C(=O)Nc1ccc(N2CC(N3CCN(c4ccc5c(c4)-c4nc(N6C(=O)OC[C@H]6C(F)F)cn4CCO5)CC3)C2)cc1 [Compound 341] |  |  |  | < 50 nM | IC50 ([1]; Homo sapiens, HCC1954, 144 h, read-out: Inhibitory activity against HCC1954 cells (IC50), class symbols): < 50 nM
